In ChEMBL document CHEMBL1124620, “New 1,4-dihydropyridine derivatives combining calcium antagonism and alpha-adrenolytic properties” (J Med Chem, 1989) one finds IC50 data, which are given here for five compounds.

For experiment [1], the target named is T1, Adrenergic receptor alpha-1 (Rattus norvegicus, UniProt P15823+P23944+P43140).
T1 sequence (P15823 whole entry): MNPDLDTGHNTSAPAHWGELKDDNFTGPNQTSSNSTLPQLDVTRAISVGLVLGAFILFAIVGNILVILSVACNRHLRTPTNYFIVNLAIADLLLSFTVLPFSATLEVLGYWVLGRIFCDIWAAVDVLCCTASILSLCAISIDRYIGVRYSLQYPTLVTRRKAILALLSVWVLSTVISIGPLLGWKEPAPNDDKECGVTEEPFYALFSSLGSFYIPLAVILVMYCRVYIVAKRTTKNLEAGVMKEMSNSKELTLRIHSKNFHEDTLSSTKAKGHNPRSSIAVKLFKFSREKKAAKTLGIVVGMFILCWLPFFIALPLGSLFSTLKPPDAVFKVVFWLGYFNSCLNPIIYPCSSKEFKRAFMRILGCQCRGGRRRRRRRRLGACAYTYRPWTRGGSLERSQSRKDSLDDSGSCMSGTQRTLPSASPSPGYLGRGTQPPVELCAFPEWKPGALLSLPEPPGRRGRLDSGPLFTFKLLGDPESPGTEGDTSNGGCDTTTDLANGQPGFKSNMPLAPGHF
T1 sequence (P23944 whole entry): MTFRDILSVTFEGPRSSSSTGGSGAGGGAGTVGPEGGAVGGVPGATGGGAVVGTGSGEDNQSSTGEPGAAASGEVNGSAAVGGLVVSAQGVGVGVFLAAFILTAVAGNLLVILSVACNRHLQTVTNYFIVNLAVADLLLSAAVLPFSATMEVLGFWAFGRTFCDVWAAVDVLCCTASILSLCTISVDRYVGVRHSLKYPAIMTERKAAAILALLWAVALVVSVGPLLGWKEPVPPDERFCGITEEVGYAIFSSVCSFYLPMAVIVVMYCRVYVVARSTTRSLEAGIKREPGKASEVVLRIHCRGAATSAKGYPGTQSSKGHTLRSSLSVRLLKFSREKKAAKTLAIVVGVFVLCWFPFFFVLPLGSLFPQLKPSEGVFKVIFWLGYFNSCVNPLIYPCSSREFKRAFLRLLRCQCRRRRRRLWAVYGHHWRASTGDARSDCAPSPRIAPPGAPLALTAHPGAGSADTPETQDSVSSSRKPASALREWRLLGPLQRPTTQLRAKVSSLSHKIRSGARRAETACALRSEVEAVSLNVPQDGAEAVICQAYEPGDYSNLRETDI
T1 sequence (P43140 whole entry): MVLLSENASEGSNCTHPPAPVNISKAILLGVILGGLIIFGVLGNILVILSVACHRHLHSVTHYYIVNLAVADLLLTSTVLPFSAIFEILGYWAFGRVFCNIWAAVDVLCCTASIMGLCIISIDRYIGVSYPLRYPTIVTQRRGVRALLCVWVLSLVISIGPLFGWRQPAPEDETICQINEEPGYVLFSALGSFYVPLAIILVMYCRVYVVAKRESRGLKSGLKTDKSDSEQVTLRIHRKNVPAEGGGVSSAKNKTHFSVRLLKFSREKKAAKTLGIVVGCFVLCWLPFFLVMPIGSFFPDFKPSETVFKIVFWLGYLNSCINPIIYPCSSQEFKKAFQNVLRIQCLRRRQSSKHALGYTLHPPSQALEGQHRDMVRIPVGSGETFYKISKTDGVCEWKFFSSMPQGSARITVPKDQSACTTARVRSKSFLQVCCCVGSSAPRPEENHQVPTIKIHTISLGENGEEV
Nature of the experiment: Alpha-1-adrenolytic activity was assessed in vitro from the ability to inhibit norepinephrine-induced contraction of rat aorta preparation.

Experiment [2] is filed under the species Sus scrofa. In words: Calcium antagonistic activity was evaluated from the inhibition of CaCl2-induced contraction of depolarized pig coronary artery. Type of experiment: functional. To be noted: Sus scrofa, Coronary artery.
The species entered for experiment [3] is Rattus norvegicus. In words: Calcium antagonistic activity was evaluated by in vitro inhibition of [3H]nitrendipine binding on rat cerebral cortex. Type of experiment: functional.
Experiment [4] deals with T1, Adrenergic receptor alpha-1. In words: Alpha-1-adrenolytic activity was assessed from the ability to inhibit [3H]prazosin binding to rat cerebral cortex preparation. The format is tissue-based.
Experiment [5] has as its target T2, Adrenergic receptor alpha-2 (Rattus norvegicus, UniProt P22086+P19328+P22909).
T2 sequence (P22086 whole entry): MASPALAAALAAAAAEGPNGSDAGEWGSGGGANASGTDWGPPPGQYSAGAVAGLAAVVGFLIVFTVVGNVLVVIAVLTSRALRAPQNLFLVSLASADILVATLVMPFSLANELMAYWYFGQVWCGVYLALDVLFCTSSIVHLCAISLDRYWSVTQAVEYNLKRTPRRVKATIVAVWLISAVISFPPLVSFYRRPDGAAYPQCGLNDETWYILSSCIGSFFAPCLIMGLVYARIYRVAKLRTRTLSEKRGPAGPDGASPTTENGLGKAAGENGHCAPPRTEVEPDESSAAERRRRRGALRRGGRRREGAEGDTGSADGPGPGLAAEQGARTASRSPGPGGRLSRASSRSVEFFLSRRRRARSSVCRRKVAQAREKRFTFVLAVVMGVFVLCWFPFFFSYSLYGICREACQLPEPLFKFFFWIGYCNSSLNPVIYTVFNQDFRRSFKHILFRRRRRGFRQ
T2 sequence (P19328 whole entry): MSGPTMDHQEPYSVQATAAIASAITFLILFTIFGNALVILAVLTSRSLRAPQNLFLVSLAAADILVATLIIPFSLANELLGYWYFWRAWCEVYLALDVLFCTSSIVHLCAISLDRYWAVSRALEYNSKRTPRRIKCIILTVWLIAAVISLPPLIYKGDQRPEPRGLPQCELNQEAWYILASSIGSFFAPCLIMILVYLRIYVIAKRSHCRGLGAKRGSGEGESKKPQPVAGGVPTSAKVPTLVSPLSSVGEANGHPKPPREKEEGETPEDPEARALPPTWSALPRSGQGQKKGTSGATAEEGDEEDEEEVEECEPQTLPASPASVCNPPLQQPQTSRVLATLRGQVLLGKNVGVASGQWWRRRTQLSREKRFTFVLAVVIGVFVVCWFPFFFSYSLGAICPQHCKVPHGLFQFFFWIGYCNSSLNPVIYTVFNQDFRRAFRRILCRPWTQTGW
T2 sequence (P22909 whole entry): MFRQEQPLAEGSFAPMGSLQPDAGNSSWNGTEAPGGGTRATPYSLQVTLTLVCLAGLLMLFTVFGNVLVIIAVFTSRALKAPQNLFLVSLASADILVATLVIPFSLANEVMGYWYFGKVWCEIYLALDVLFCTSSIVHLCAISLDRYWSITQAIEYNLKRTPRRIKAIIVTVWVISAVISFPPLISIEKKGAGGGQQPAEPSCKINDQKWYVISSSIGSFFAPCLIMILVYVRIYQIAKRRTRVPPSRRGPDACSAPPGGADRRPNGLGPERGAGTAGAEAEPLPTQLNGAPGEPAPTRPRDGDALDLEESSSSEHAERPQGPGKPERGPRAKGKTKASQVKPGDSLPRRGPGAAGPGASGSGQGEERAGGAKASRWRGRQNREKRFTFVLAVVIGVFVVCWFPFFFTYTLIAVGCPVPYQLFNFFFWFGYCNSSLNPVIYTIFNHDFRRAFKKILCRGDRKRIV
In words: Alpha-2-adrenolytic activity was assessed from the ability to inhibit [3H]yohimbine binding to rat cerebral cortex preparation. Type of experiment: tissue-based.

On to `COC(=O)C1=C(C)NC(C)=C(C(=O)OCCN(C)Cc2ccccc2)C1c1cccc([N+](=O)[O-])c1` (centres undefined) [NICARDIPINE], for which the IC50 (usually the concentration needed to halve the response being measured) in experiment [1] is greater than 0.00001 M; in experiment [2] it was 0.3 nM; in experiment [3] it was 0.026 nM; in experiment [4] it was 3600 nM; in experiment [5] it was 1400 nM.

For the compound `COc1cc2nc(N3CCN(C(=O)c4ccco4)CC3)nc(N)c2cc1OC` [PRAZOSIN], the IC50 in experiment [3] amounted to 3000 nM.

With `CO/C(O)=C1\C(C)=NC(C)=C(C(=O)OCCN(C)C[C@@H]2COc3ccccc3O2)[C@H]1c1cccc([N+](=O)[O-])c1.Cl`, the half-maximal inhibitory concentration (IC50) in experiment [1] is >> 0.00001 M; in experiment [2] it was 2.5 nM; in experiment [3] it was 1 nM; in experiment [4], 2000 nM; in experiment [5] it was 19000 nM.

In the case of `CC1=NC(C)=C(C(=O)OCCN(C)CC2COc3ccccc3O2)C(c2cccc([N+](=O)[O-])c2)/C1=C(\O)OC(C)C.Cl` (centres undefined), the IC50 in experiment [1] is >> 0.00003 M; in experiment [2] it was 4 nM; in experiment [3] it was 0.06 nM; in experiment [4], 3500 nM; in experiment [5], 830 nM.

Regarding `COC(=O)C1=C(C)NC(C)=C(C(=O)OCCN(C)C[C@H]2COc3ccccc3O2)[C@@H]1c1cccc([N+](=O)[O-])c1.Cl` (racemic), the results for the IC50 in experiment [1], in experiment [4] and in experiment [5] were 0.00003 M, 1900 nM and 210 nM, respectively.
